Data set [1] relates to human cervical cancer Hela cells. The data set is described as follows: MTT cytotoxicity, Experimental Example 5. It counts as cell-based. As for the experimental part: (§1) (1) Logarithmic phase cells were collected, the concentration of a cell suspension was adjusted, the cell suspension was added to a cell culture plate in a dose of 100 μL per well, and the cells were then added to a cell culture plate so that the density of the cells to be tested was adjusted to 1000-10000 wells (edge wells were filled with sterile PBS). […] Generally, the drug in 5 to 7 gradients was added in a dose of 100 μL per well, and 3 to 5 wells were set for each concentration of a drug. […] Cells in the experimental photosensitizer-light irradiation group were incubated for 15 min and then irradiated with light. […] After light irradiation, the cells were washed with PBS. […] After light irradiation, the cells were washed with PBS. […] If the drug could react with the MTT, centrifuging was carried out first, and then the culture solution was discarded and the cells were carefully washed twice or three times with PBS, and then the culture solution containing MTT was added. (6) The culture was terminated and the culture solution in the wells was carefully removed. (7) Dimethyl sulfoxide was added in a dose of 150 μL per well, and the plate was then shaken on a shaker at a low speed for 10 min to fully dissolve crystals. The absorbance at OD 490 nm of each well was measured with enzyme-linked immunoassay. […]

The subject of data set [2] is 4T1 cells (breast cancer cells in mice). Put plainly: Photodynamic therapy of tumors in mice (tumor size, tumor weight, B cells in tumor tissue). It is filed as in vivo, BALB/C mice. The conditions noted are these: 14 days after treatment. The procedure:
1. Photodynamic therapy experiments on tumors were carried out by using BJMU-204 as a photosensitizer and BALB/C mice as experimental animals. Modeling mode: BALB/C mice were divided into 5 groups in total, 11-12 mice in each group. 4T1 cells (breast cancer cells in mice) were resuscitated and subcultured to a better cell state for tumorigenesis inoculation. BALB/C mice were locally depilated and disinfected, and tumor cells were injected into the mouse mammary fat pad in situ. Tumors were formed within 7 to 10 days. […] [table] 2. Mice in each experimental group were subjected to blood collection for serum separation and necropsy, and tumors were taken out and measured to obtain their wet weights; tumor tissues were fixed, pathological examinations were performed, and H. E. staining was used to observe the changes of tumors of the mice under an optical microscope; blood routine indicators (including white blood cell count (WBC), red blood cell count (RBC), lymphocyte count (LY), platelet count (PLT) and many other blood routine indicators) and blood biochemical indicators (including routine blood biochemical indicators) were tested and analyzed in the Laboratory of Peking University Third Hospital. 3. Tumors were taken out of mice in each experimental group, a piece of tumor tissue about 1 cm*1 cm*0.5 cm in size was cut up and placed in a 10 ml EP tube. 5 ml of pancreatin was added for digestion. 30 min later, the digestion was ended. The digestion solution and the tumor tissue were sieved through a single cell sieve to obtain a tumor tissue single-cell suspension. B220 antibody (for flow cytometry) was added to the suspension and the resulting solution was stained with a PI staining solution; 30 min later, the staining was ended and the staining solution was removed; next, re-suspending was carried out with a PBS solution for test with a flow cytometry.

Data set [3] deals with human immortalized keratinocyte (Hacat cells). The data set is described as follows: MTT cytotoxicity to normal cells, Experimental Example 5. It counts as cell-based. As for the experimental part:
as §1

In data set [4] the test system is B16 melanoma cell. Put plainly: MTT toxicity to tumor cells, under light and in the dark. The conditions noted are these: Mus musculus, under light, 450-480 nm laser, 110 mW/cm^2, 900 s. It is filed as cell-based. As for the experimental part: (§2) In this experimental example, the toxicity of the compound to tumor cells was tested by an MTT method including the following specific steps.
(§3) (1) Logarithmic cells were collected, the concentration of a cell suspension was adjusted, the cell suspension was added to a cell culture plate in a dose of 100 μL per well, and the cells were then added to a cell culture plate so that the density of the cells to be tested was adjusted to 1000-10000 wells (edge wells were filled with sterile PBS).
(§4) (2) The cells were incubated at 37° C. in the presence of 5% CO2 until the cells in a single layer covered the bottom of each well (96-well flat-bottom plate), and a drug in concentration gradients was added. Generally, the drug in 5 to 7 gradients was added in a dose of 100 μL per well, and 3 to 5 multi-wells were set.
(§5) (3) The cells were randomly divided into treated groups under light and treated groups in the dark, incubated at 37° C. in the presence of 5% CO2 for 16 h to 48 h, and observed with an inverted microscope.
(§6) (4) The cells were irradiated for 900 s with a laser having a wavelength of 450 nm to 480 nm (at an intensity of 110 mW/cm^2), and the final light dose was about 100 J/cm^2. After light irradiation, the cells were washed with PBS.
(§7) (5) An MTT solution (5 mg/ml, 0.5% MTT) was added in a dose of 20 μL per well to further incubate the cells for 4 h. If the drug could react with the MTT, centrifuging was carried out first, and then the culture solution was discarded and the cells were carefully washed twice or three times with PBS, and then the culture solution containing MTT was added.
(§8) (6) The culture was terminated and the culture solution in the wells was carefully removed.
(§9) (7) Dimethyl sulfoxide was added in a dose of 150 μL per well, and the plate was then shaken on a shaker at a low speed for 10 min to fully dissolve crystals. The absorbance at OD 490 nm of each well was measured with enzyme-linked immunoassay.
(§10) (8) Zero adjustment wells (medium, MTT, dimethyl sulfoxide) and control wells (cells, dissolving media of the same concentration, culture solution, MTT, dimethyl sulfoxide) were set at the same time.

For data set [5], the system named is SW480 colon cancer cells. Described as above. It counts as cell-based. The conditions noted are these: Homo sapiens, SW480; under light, 450-480 nm laser, 110 mW/cm^2, 900 s. The procedure:
as §2, §3, §4, §5, §6, §7, §8, §9, §10

Data set [6] has as its system Hela cells. Described as above. It counts as cell-based. The conditions noted are these: Homo sapiens, under light, 450-480 nm laser, 110 mW/cm^2, 900 s. As for the experimental part: as §2, §3, §4, §5, §6, §7, §8, §9, §10

The source of these data is US20220257764A1, “USE OF DIKETONE COMPOUND IN PHOTODYNAMIC THERAPY OR DIAGNOSIS” (BEIJING WHOLESOMETECH CO., LTD., priority 2019, published 2022).

As a reminder, the IC50 is the concentration that gives 50% inhibition.

In the case of `CC(=O)C(C)=O` [BJMU-204], the “cytotoxicity to Hela cells” value in data set [1] (given in the dark) is recorded as “relatively low cytotoxicity”; in data set [1] (given under blue light, 450-480 nm, 110 mW/cm^2, 900 s), “relatively high cytotoxicity”. Also, the “number of B cells in tumor tissues” value in data set [2] (3% (p<0.001) and 0.5% (p<0.01) intratumoral + light vs control) is “increases significantly”. The “weight changes of tumor tissues” value in data set [2] (3% and 0.5% intratumoral + light, both p<0.001 vs control, better at high concentration) is listed as “obvious growth inhibition effect”. The “size changes of tumor tissues” value in data set [2] (3% and 0.5% intratumoral + light, both p<0.001 vs control, more prominent at high concentration) is “controlled and decreased”. In addition, in data set [3], the “cytotoxicity to Hacat cells” value is “relatively low cytotoxicity”. The IC50 in data set [4] was determined as 500 ± 30 nM; in data set [5], 600 ± 50 nM; in data set [6], 600 ± 20 nM.
